Test results as given in publication PMC4412257, “2′,6′-Dimethylphenylalanine: A Useful Aromatic Amino Acid Surrogate for Tyr or Phe Residue in Opioid Peptides” (International Journal of Medicinal Chemistry, 2012).
Like-named read-outs stand apart in the source and are kept apart here.

Tests used:
[1] = target: MVD (δ): mouse vas deferens, δ-receptors; details: cited from earlier work; for GPI/MVD: ratio of IC50 values; for Ke of CTAP against the peptide, MVD: antagonist CTAP (μ); for Ke of CTAP against the peptide, MVD / Ke of N,N(Me)2Dmt-Tic-OH against the peptide, MVD: MVD assay; for Ke of N,N(Me)2Dmt-Tic-OH against the peptide, MVD: antagonist N,N(Me)2Dmt-Tic-OH (δ)
[2] = tested on: GPI (μ): guinea pig ileum, predominantly μ-receptors; details: cited from earlier work; for Ke of CTAP against the peptide, GPI: antagonist CTAP (μ), GPI assay
μ-opioid receptor [3] = details: versus [3H]DAMGO, read-out: Receptor binding affinity, Ki ± S.E., μ, cited from earlier work
δ-opioid receptor [4] = details: cited from earlier work; for μ/δ: ratio of Ki values; for Ki: versus [3H]DT, read-out: Receptor binding affinity, Ki ± S.E., δ
[5] = tested on: GPI (μ): guinea pig ileum, predominantly μ-receptors; assay: isolated guinea pig ileum (GPI) assay; type: cell-based; details: ratio of IC50 values
Protocol: (§1) The receptor-binding affinities of synthetic analogs were determined using rat brain, as previously reported. […] The GPI tissue contains predominantly μ-receptors, while MVD tissue contains δ-receptors. […] In contrast, 11 was devoid of activity in both assays, as expected from the binding data. […] This analog turned out to be a potent μ-antagonist and a weak δ-antagonist. […] The results of 13 are in line with observations that Dmt-D-Phe-NH2 and its C-terminally extended analog are μ-receptor antagonists.

mice = tested on: mice; set-up: method as in PMID 12657261; details: formalin test in mice, subcutaneous injection, cited from earlier work
μ-opioid receptor [6] = assay: μ-opioid receptor binding, brain homogenate, versus [3H]DAMGO; set-up: species or system rat; details: ratio of Ki values
Protocol: as §1
Two methyl groups on Dmp^4 may interfere with the receptor interaction due to a reduction in conformational flexibility and/or enhanced lipophilicity. To further examine the usefulness of Dmp-containing DYN peptides as κ-opioid receptor ligands, the in vitro bioactivity of DYN peptides was determined using the GPI assay (Table 5).

δ-opioid receptor [7] = assay: δ-opioid receptor binding, brain homogenate, versus [3H]DT; set-up: species or system rat; details: Table 1; ratio of Ki values
Protocol: The receptor-binding affinities of synthetic analogs were determined using rat brain, as previously reported [45].

[8] = tested on: MVD (δ): mouse vas deferens, δ-receptors; assay: isolated mouse vas deferens (MVD) assay; type: cell-based; details: Table 1; ratio of IC50 values
Protocol: as §1

In the case of [Dmt^1]ENK [reference compound], the IC50 ([1]; Table 1, footnote c) is listed as 0.17 ± 0.02 nM, the GPI/MVD ([1]; Table 1, footnote c) is listed as 3.24 and the IC50 ([1]; Table 6, footnote c) is listed as 0.17 ± 0.02 nM. For the same molecule, the GPI/MVD ([1]; Table 6, footnote c) was 3.24, the IC50 ([2]; Table 1, footnote c) was 0.55 ± 0.17 nM and the IC50 ([2]; Table 6, footnote c) was 0.55 ± 0.17 nM. The Ki (μ-opioid receptor [3]; Table 1, footnote c) was 0.0068 ± 0.003 nM, the Ki (μ-opioid receptor [3]; Table 6, footnote c) was 0.0068 ± 0.003 nM and the μ/δ (δ-opioid receptor [4]; Table 1, footnote c) was 0.22. The Ki (δ-opioid receptor [4]; Table 1, footnote c) was 0.031 ± 0.011 nM, the μ/δ (δ-opioid receptor [4]; Table 6, footnote c) was 0.22 and the Ki (δ-opioid receptor [4]; Table 6, footnote c) was 0.031 ± 0.011 nM.

For [Dmp^1]YRFB [compound 24], the IC50 ([1]; Table 6) is given as 188 ± 52 nM, the “Ke of CTAP against the peptide, MVD” value [1] is given as 13.4 nM and the “Ke of N,N(Me)2Dmt-Tic-OH against the peptide, MVD” value (shortened to “Ke of N,N(Me)2Dmt-Tic-OH”) [1] is given as greater than 1000 nM. The MVD/GPI ([5]; Table 6) was 19, the “ED50, First phase” value (mice) was 1946 nmol/kg and the “ED50, Second phase” value (mice) was 1529 nmol/kg. The IC50 ([2]; Table 6) was 9.88 ± 1.04 nM, the “Ke of CTAP against the peptide, GPI” value [2] was 25.1 nM and the Ki (μ-opioid receptor [3]; Table 6) was 0.0623 ± 0.014 nM. For the same molecule, the Ki (δ-opioid receptor [4]; Table 6) was 2570 ± 947 nM and the δ/μ (μ-opioid receptor [6]; Table 6) was 41284.

For [D-Dmp^4]ENK [compound 11], the IC50 ([1]; Table 1) is listed as greater than 10000 nM, the IC50 ([2]; Table 1) is listed as greater than 10000 nM and the Ki (μ-opioid receptor [3]; Table 1, rat brain) is listed as 2500 ± 169 nM. For the same molecule, the Ki (δ-opioid receptor [4]; Table 1, rat brain) was 8920 ± 4100 nM and the μ/δ (δ-opioid receptor [7]) was 0.28.

In the case of [Dmp^1]EM2 [compound 38], the IC50 ([1]; Table 6) is listed as 661 ± 316 nM, the MVD/GPI ([5]; Table 6) is listed as 8.61 and the IC50 ([2]; Table 6) is listed as 76.9 ± 20.7 nM. For the same molecule, the Ki (μ-opioid receptor [3]; Table 6) was 2.48 ± 1.46 nM, the Ki (δ-opioid receptor [4]; Table 6) was 6760 ± 590 nM and the δ/μ (μ-opioid receptor [6]; Table 6) was 2727.

In the case of [Dmp^3]YRFB [compound 22], the IC50 ([1]; Table 1) is given as 27.9 ± 5 nM, the “Ke of CTAP against the peptide, MVD” value [1] is given as 11.4 nM and the “Ke of N,N(Me)2Dmt-Tic-OH” value [1] is given as greater than 1000 nM. The MVD/GPI ([5]; Table 1) was 16.7, the “ED50, First phase” value (mice) was 98.6 nmol/kg and the “ED50, Second phase” value (mice) was 113 nmol/kg. For the same molecule, the IC50 ([2]; Table 1) was 1.67 ± 0.24 nM, the “Ke of CTAP against the peptide, GPI” value [2] was 22.7 nM and the Ki (μ-opioid receptor [3]; Table 1, rat brain) was 0.035 ± 0.0167 nM. The Ki (δ-opioid receptor [4]; Table 1, rat brain) was 544 ± 143 nM and the δ/μ (μ-opioid receptor [6]; Table 1) was 15543.

For [Dmp^4]EM2 [compound 16], the IC50 ([1]; Table 1) is listed as 320 ± 55 nM, the MVD/GPI ([5]; Table 1) is listed as 1.63 and the IC50 ([2]; Table 1) is listed as 196 ± 40 nM. The Ki (μ-opioid receptor [3]; Table 1, rat brain) was 13.2 ± 1.9 nM, the Ki (δ-opioid receptor [4]; Table 1, rat brain) was 7620 ± 2570 nM and the δ/μ (μ-opioid receptor [6]; Table 1) was 578.

In the case of [Phe^1]DT [compound 37], the IC50 ([1]; Table 6) is listed as 10.4 ± 1.5 nM, the IC50 ([2]; Table 6) is listed as greater than 10000 nM and the Ki (μ-opioid receptor [3]; Table 6) is listed as greater than 2180 nM. For the same molecule, the Ki (δ-opioid receptor [4]; Table 6) was 2.68 ± 1.22 nM.

For [Dmt^1, D-Dmp^4]ENK [compound 13], the IC50 ([1]; Table 1) is given as greater than 10000 nM, the “pA2 (δ antagonism)” value ([1]; against DT as a δ agonist in the MVD assay) is given as 5.57 and the IC50 ([2]; Table 1) is given as greater than 10000 nM. The “pA2 (μ antagonism)” value ([2]; against EM2 as a μ agonist in the GPI assay) was 6.90, the Ki (μ-opioid receptor [3]; Table 1, rat brain) was 5.61 ± 0.59 nM and the Ki (δ-opioid receptor [4]; Table 1, rat brain) was 40.9 ± 11.5 nM. It also gave a μ/δ (δ-opioid receptor [7]) of 0.14.

In the case of “Tyr-Gly-Gly-Phe-Leu [ENK, reference compound]”, the IC50 ([1]; Table 1) is given as 22.2 ± 4.3 nM, the IC50 ([1]; Table 6) is given as 22.2 ± 4.3 nM and the IC50 ([2]; Table 1) is given as 103 ± 30 nM. The IC50 ([2]; Table 6) was 103 ± 30 nM.

For “Tyr-D-Ala-Phe-Glu-Val-Val-Gly-NH2 [DT, reference compound]”, the IC50 ([1]; Table 1) is listed as 0.582 ± 0.029 nM, the IC50 ([1]; Table 6) is listed as 0.582 ± 0.029 nM and the “Ke of CTAP against the peptide, MVD” value [1] is listed as greater than 1000 nM. For the same molecule, the “Ke of N,N(Me)2Dmt-Tic-OH” value [1] was 0.64 nM, the IC50 ([2]; Table 1) was 5440 ± 812 nM and the IC50 ([2]; Table 6) was 5440 ± 812 nM. The GPI/MVD [8] was 9342, the Ki (μ-opioid receptor [3]; Table 1, rat brain) was 314 ± 53 nM and the Ki (μ-opioid receptor [3]; Table 6) was 314 ± 53 nM. The Ki (δ-opioid receptor [4]; Table 1, rat brain) was 0.0226 ± 0.0077 nM, the Ki (δ-opioid receptor [4]; Table 6) was 0.0226 ± 0.0077 nM and the μ/δ (δ-opioid receptor [7]) was 13894.

For [D-Dmp^1]EM2 [compound 39], the IC50 ([1]; Table 6) is given as 2330 ± 943 nM, the IC50 ([2]; Table 6) is given as 1390 ± 221 nM and the Ki (μ-opioid receptor [3]; Table 6) is given as 40.4 ± 2.6 nM. The Ki (δ-opioid receptor [4]; Table 6) was 9710 ± 3820 nM and the δ/μ (μ-opioid receptor [6]; Table 6) was 241.

In the case of `CN1CC[C@]23c4c5ccc(O)c4O[C@H]2[C@@H](O)C=C[C@H]3[C@H]1C5` [Morphine, reference compound], the “ED50, First phase” value (mice) is given as 3811 nmol/kg and the “ED50, Second phase” value (mice) is given as 7319 nmol/kg.

In the case of [D-Dmp^1]YRFB [compound 41], the IC50 ([1]; Table 6) is given as 1470 ± 283 nM, the MVD/GPI ([5]; Table 6) is given as 4.6 and the IC50 ([2]; Table 6) is given as 320 ± 30 nM. The Ki (μ-opioid receptor [3]; Table 6) was 7.62 ± 1.75 nM, the Ki (δ-opioid receptor [4]; Table 6) was greater than 2820 nM and the δ/μ (μ-opioid receptor [6]; Table 6) was greater than 370.

In the case of “Tyr-D-Ala-Phe-Gly-Tyr-Pro-Ser-NH2 [DM, reference compound]”, the IC50 ([1]; Table 1) is given as 34.4 ± 4.8 nM, the MVD/GPI ([5]; Table 1) is given as 9.2 and the IC50 ([2]; Table 1) is given as 3.74 ± 0.57 nM. For the same molecule, the Ki (μ-opioid receptor [3]; Table 1, rat brain) was 0.092 ± 0.024 nM, the Ki (δ-opioid receptor [4]; Table 1, rat brain) was 192 ± 51 nM and the δ/μ (μ-opioid receptor [6]; Table 1) was 2087.

In the case of [Dmt^1, Dmp^4]ENK [compound 12], the IC50 ([1]; Table 1) is listed as 1.45 ± 0.26 nM, the IC50 ([2]; Table 1) is listed as 2 ± 0.51 nM and the GPI/MVD [8] is listed as 1.38. For the same molecule, the Ki (μ-opioid receptor [3]; Table 1, rat brain) was 0.03 ± 0.011 nM and the μ/δ (δ-opioid receptor [7]) was 0.19.

In the case of [Phe^1]YRFB [compound 42], the IC50 ([1]; Table 6) is listed as 7140 ± 950 nM, the MVD/GPI ([5]; Table 6) is listed as 11.2 and the IC50 ([2]; Table 6) is listed as 633 ± 89 nM. The Ki (μ-opioid receptor [3]; Table 6) was 7.17 ± 1.03 nM, the Ki (δ-opioid receptor [4]; Table 6) was greater than 2820 nM and the δ/μ (μ-opioid receptor [6]; Table 6) was greater than 393.

For [D-Dmp^l]DT [compound 35], the IC50 ([1]; Table 6) is listed as 662 ± 147 nM, the IC50 ([2]; Table 6) is listed as greater than 10000 nM and the Ki (μ-opioid receptor [3]; Table 6) is listed as greater than 2180 nM. For the same molecule, the Ki (δ-opioid receptor [4]; Table 6) was 1390 ± 495 nM.
